Test results reported in patent publication US11771648B2, “Carrier for oromucosal administration of physiologically active substances” (INSTAR TECHNOLOGIES A.S., priority 2011, dated 2023).

Experiment: solubility in water (stated in words, no method described)
Type: physicochemical
Details: qualitative statement

| solubility in water | SMILES |
| --- | --- |
| very well soluble in water | COc1ccc2cc(CCC(C)=O)ccc2c1 [Nabumetone, 4-(6-methoxy-2-nafthyl)-2-butanon] |
| good solubility in water | CNS(=O)(=O)Cc1ccc2[nH]cc(CCN(C)C)c2c1 [Sumatriptane, 1-[3-(2-dimethylaminoethyl)-1H-indol-5-yl]-N-methyl-methanesulfonamide] |
